tested on: MFM-223; test: normalised response (% of control), CellTox Green; higher = less cell death (100 = DMSO, 0 = benzethonium chloride kill control); conditions: incubation time: 72 h
Method in brief: (§1)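 A 20 µl suspension of breast cancer cells was seeded into each well of 384-well plates containing compound at 5 concentrations in 10-fold steps over a compound-specific 10,000-fold range. After 72 h incubation, CellTox Green fluorescence (485/520 nm) was read first, and CellTiter-Glo luminescence was read after 10 min at room temperature. Each plate was normalised against 0.1 % DMSO (100) and a positive kill control (0), and each value is the normalised signal at one concentration.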

Row | SMILES | normalised response [%]
1 | CNC(=O)c1ccc(N2C(=S)N(c3ccc(C#N)c(C(F)(F)F)c3)C(=O)C23CCC3)cc1F [RD162] (100 nM) | 103
2 | CNC(=O)c1cc(Oc2ccc(NC(=O)Nc3ccc(Cl)c(C(F)(F)F)c3)c(F)c2)ccn1 [Regorafenib] (100 nM) | 88.1
3 | c1ccc2c(CCNc3ccc(Nc4ccncc4)cc3)c[nH]c2c1 [Serdemetan] (100 nM) | 93.3
4 | CC(C)C[C@@H](C(=O)N[C@H](C(=O)OC1CCCC1)c1ccccc1)[C@H](O)C(=O)NO [Tosedostat] (100 nM) | 84
5 | COc1cc2c(NC3CCN(C(C)C)CC3)nc(N3CCC(F)(F)CC3)nc2cc1OCCCN1CCCC1 [UNC0642] (100 nM) | 101
6 | COCC[n+]1c2c(n(Cc3cnccn3)c1C)C(=O)c1ccccc1C2=O [YM155] (100 nM) | 70.4

tested on: HCC1143; test: as above; conditions: incubation time: 72 h
Method in brief: as §1

Row | SMILES | normalised response [%]
7 | CNC(=O)c1ccc(N2C(=S)N(c3ccc(C#N)c(C(F)(F)F)c3)C(=O)C23CCC3)cc1F [RD162] (100 nM) | 84.3
8 | CNC(=O)c1cc(Oc2ccc(NC(=O)Nc3ccc(Cl)c(C(F)(F)F)c3)c(F)c2)ccn1 [Regorafenib] (100 nM) | 87.8
9 | c1ccc2c(CCNc3ccc(Nc4ccncc4)cc3)c[nH]c2c1 [Serdemetan] (100 nM) | 104
10 | CC(C)C[C@@H](C(=O)N[C@H](C(=O)OC1CCCC1)c1ccccc1)[C@H](O)C(=O)NO [Tosedostat] (100 nM) | 86.2
11 | COc1cc2c(NC3CCN(C(C)C)CC3)nc(N3CCC(F)(F)CC3)nc2cc1OCCCN1CCCC1 [UNC0642] (100 nM) | 65.3
12 | COCC[n+]1c2c(n(Cc3cnccn3)c1C)C(=O)c1ccccc1C2=O [YM155] (100 nM) | 75.2

tested on: Hs578T; test: as above; conditions: incubation time: 72 h
Method in brief: as §1

Row | SMILES | normalised response [%]
13 | CNC(=O)c1ccc(N2C(=S)N(c3ccc(C#N)c(C(F)(F)F)c3)C(=O)C23CCC3)cc1F [RD162] (100 nM) | 88
14 | CNC(=O)c1cc(Oc2ccc(NC(=O)Nc3ccc(Cl)c(C(F)(F)F)c3)c(F)c2)ccn1 [Regorafenib] (100 nM) | 99.4
15 | c1ccc2c(CCNc3ccc(Nc4ccncc4)cc3)c[nH]c2c1 [Serdemetan] (100 nM) | 99.5
16 | CC(C)C[C@@H](C(=O)N[C@H](C(=O)OC1CCCC1)c1ccccc1)[C@H](O)C(=O)NO [Tosedostat] (100 nM) | 81.3
17 | COc1cc2c(NC3CCN(C(C)C)CC3)nc(N3CCC(F)(F)CC3)nc2cc1OCCCN1CCCC1 [UNC0642] (100 nM) | 90.2
18 | COCC[n+]1c2c(n(Cc3cnccn3)c1C)C(=O)c1ccccc1C2=O [YM155] (100 nM) | 106

tested on: MDA-MB-468; test: as above; conditions: incubation time: 72 h
Method in brief: as §1

Row | SMILES | normalised response [%]
19 | CNC(=O)c1ccc(N2C(=S)N(c3ccc(C#N)c(C(F)(F)F)c3)C(=O)C23CCC3)cc1F [RD162] (100 nM) | 87.9
20 | CNC(=O)c1cc(Oc2ccc(NC(=O)Nc3ccc(Cl)c(C(F)(F)F)c3)c(F)c2)ccn1 [Regorafenib] (100 nM) | 135
21 | c1ccc2c(CCNc3ccc(Nc4ccncc4)cc3)c[nH]c2c1 [Serdemetan] (100 nM) | 83.8
22 | CC(C)C[C@@H](C(=O)N[C@H](C(=O)OC1CCCC1)c1ccccc1)[C@H](O)C(=O)NO [Tosedostat] (100 nM) | -23.4
23 | COc1cc2c(NC3CCN(C(C)C)CC3)nc(N3CCC(F)(F)CC3)nc2cc1OCCCN1CCCC1 [UNC0642] (100 nM) | 131
24 | COCC[n+]1c2c(n(Cc3cnccn3)c1C)C(=O)c1ccccc1C2=O [YM155] (100 nM) | -69.5

tested on: MDA-MB-453; test: as above; conditions: incubation time: 72 h
Method in brief: as §1

Row | SMILES | normalised response [%]
25 | CNC(=O)c1ccc(N2C(=S)N(c3ccc(C#N)c(C(F)(F)F)c3)C(=O)C23CCC3)cc1F [RD162] (100 nM) | 107
26 | CNC(=O)c1cc(Oc2ccc(NC(=O)Nc3ccc(Cl)c(C(F)(F)F)c3)c(F)c2)ccn1 [Regorafenib] (100 nM) | 103
27 | c1ccc2c(CCNc3ccc(Nc4ccncc4)cc3)c[nH]c2c1 [Serdemetan] (100 nM) | 103
28 | CC(C)C[C@@H](C(=O)N[C@H](C(=O)OC1CCCC1)c1ccccc1)[C@H](O)C(=O)NO [Tosedostat] (100 nM) | 102
29 | COc1cc2c(NC3CCN(C(C)C)CC3)nc(N3CCC(F)(F)CC3)nc2cc1OCCCN1CCCC1 [UNC0642] (100 nM) | 108
30 | COCC[n+]1c2c(n(Cc3cnccn3)c1C)C(=O)c1ccccc1C2=O [YM155] (100 nM) | 87.8

tested on: BT-549; test: as above; conditions: incubation time: 72 h
Method in brief: as §1

Row | SMILES | normalised response [%]
31 | CNC(=O)c1ccc(N2C(=S)N(c3ccc(C#N)c(C(F)(F)F)c3)C(=O)C23CCC3)cc1F [RD162] (100 nM) | 106
32 | CNC(=O)c1cc(Oc2ccc(NC(=O)Nc3ccc(Cl)c(C(F)(F)F)c3)c(F)c2)ccn1 [Regorafenib] (100 nM) | 109
33 | c1ccc2c(CCNc3ccc(Nc4ccncc4)cc3)c[nH]c2c1 [Serdemetan] (100 nM) | 103
34 | CC(C)C[C@@H](C(=O)N[C@H](C(=O)OC1CCCC1)c1ccccc1)[C@H](O)C(=O)NO [Tosedostat] (100 nM) | 72.1
35 | COc1cc2c(NC3CCN(C(C)C)CC3)nc(N3CCC(F)(F)CC3)nc2cc1OCCCN1CCCC1 [UNC0642] (100 nM) | 101
36 | COCC[n+]1c2c(n(Cc3cnccn3)c1C)C(=O)c1ccccc1C2=O [YM155] (100 nM) | 88.9

tested on: CAL-85-1; test: as above; conditions: incubation time: 72 h
Method in brief: as §1

Row | SMILES | normalised response [%]
37 | CNC(=O)c1ccc(N2C(=S)N(c3ccc(C#N)c(C(F)(F)F)c3)C(=O)C23CCC3)cc1F [RD162] (100 nM) | 101
38 | CNC(=O)c1cc(Oc2ccc(NC(=O)Nc3ccc(Cl)c(C(F)(F)F)c3)c(F)c2)ccn1 [Regorafenib] (100 nM) | 108
39 | c1ccc2c(CCNc3ccc(Nc4ccncc4)cc3)c[nH]c2c1 [Serdemetan] (100 nM) | 103
40 | CC(C)C[C@@H](C(=O)N[C@H](C(=O)OC1CCCC1)c1ccccc1)[C@H](O)C(=O)NO [Tosedostat] (100 nM) | 62.7
41 | COc1cc2c(NC3CCN(C(C)C)CC3)nc(N3CCC(F)(F)CC3)nc2cc1OCCCN1CCCC1 [UNC0642] (100 nM) | 105
42 | COCC[n+]1c2c(n(Cc3cnccn3)c1C)C(=O)c1ccccc1C2=O [YM155] (100 nM) | -130

tested on: CAL-51; test: as above; conditions: incubation time: 72 h
Method in brief: as §1

Row | SMILES | normalised response [%]
43 | CNC(=O)c1ccc(N2C(=S)N(c3ccc(C#N)c(C(F)(F)F)c3)C(=O)C23CCC3)cc1F [RD162] (100 nM) | 105
44 | CNC(=O)c1cc(Oc2ccc(NC(=O)Nc3ccc(Cl)c(C(F)(F)F)c3)c(F)c2)ccn1 [Regorafenib] (100 nM) | 105
45 | c1ccc2c(CCNc3ccc(Nc4ccncc4)cc3)c[nH]c2c1 [Serdemetan] (100 nM) | 91.4
46 | CC(C)C[C@@H](C(=O)N[C@H](C(=O)OC1CCCC1)c1ccccc1)[C@H](O)C(=O)NO [Tosedostat] (100 nM) | 53
47 | COc1cc2c(NC3CCN(C(C)C)CC3)nc(N3CCC(F)(F)CC3)nc2cc1OCCCN1CCCC1 [UNC0642] (100 nM) | 98.1
48 | COCC[n+]1c2c(n(Cc3cnccn3)c1C)C(=O)c1ccccc1C2=O [YM155] (100 nM) | 21.2

tested on: DU-4475; test: as above; conditions: incubation time: 72 h
Method in brief: as §1

Row | SMILES | normalised response [%]
49 | CNC(=O)c1ccc(N2C(=S)N(c3ccc(C#N)c(C(F)(F)F)c3)C(=O)C23CCC3)cc1F [RD162] (100 nM) | 103
50 | CNC(=O)c1cc(Oc2ccc(NC(=O)Nc3ccc(Cl)c(C(F)(F)F)c3)c(F)c2)ccn1 [Regorafenib] (100 nM) | 103
51 | c1ccc2c(CCNc3ccc(Nc4ccncc4)cc3)c[nH]c2c1 [Serdemetan] (100 nM) | 100
52 | CC(C)C[C@@H](C(=O)N[C@H](C(=O)OC1CCCC1)c1ccccc1)[C@H](O)C(=O)NO [Tosedostat] (100 nM) | 102
53 | COc1cc2c(NC3CCN(C(C)C)CC3)nc(N3CCC(F)(F)CC3)nc2cc1OCCCN1CCCC1 [UNC0642] (100 nM) | 97.5
54 | COCC[n+]1c2c(n(Cc3cnccn3)c1C)C(=O)c1ccccc1C2=O [YM155] (100 nM) | 92.8

tested on: MCF-10A; test: as above; conditions: incubation time: 72 h
Method in brief: as §1

Row | SMILES | normalised response [%]
55 | CNC(=O)c1ccc(N2C(=S)N(c3ccc(C#N)c(C(F)(F)F)c3)C(=O)C23CCC3)cc1F [RD162] (100 nM) | 110

Source: the supplement of paper PMC4862054
